Measured values from PubChem BioAssay (NCI).
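GI50 = concentration required for 50% inhibition of growth. At the TGI there is no net growth.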

What was measured:
Assay in all cases: NCI anticancer screen, dose series, 384-well format
SK-MEL-2 melanoma = test system: SK-MEL-2 melanoma
OVCAR-8 ovarian = test system: OVCAR-8 ovarian
SK-MEL-5 melanoma = test system: SK-MEL-5 melanoma
RPMI-8226 leukemia = test system: RPMI-8226 leukemia
MDA-MB-468 breast = test system: MDA-MB-468 breast
ACHN renal = test system: ACHN renal
HS 578T breast = test system: HS 578T breast
NCI-H23 lung = test system: NCI-H23 lung
NCI-H322M lung = test system: NCI-H322M lung
SNB-19 CNS = test system: SNB-19 CNS
UACC-62 melanoma = test system: UACC-62 melanoma
SN12C renal = test system: SN12C renal
HCT-15 colon = test system: HCT-15 colon
NCI-H460 NSCLC = test system: NCI-H460 NSCLC
RXF 393 renal = test system: RXF 393 renal
SF-268 CNS = test system: SF-268 CNS
TK-10 renal = test system: TK-10 renal
HOP-92 NSCLC = test system: HOP-92 NSCLC
EKVX NSCLC = test system: EKVX NSCLC
OVCAR-4 ovarian = test system: OVCAR-4 ovarian
OVCAR-3 ovarian = test system: OVCAR-3 ovarian
OVCAR-5 ovarian = test system: OVCAR-5 ovarian
U251 glioblastoma = test system: U251 glioblastoma
CAKI-1 renal = test system: CAKI-1 renal
MDA-MB-435 melanoma = test system: MDA-MB-435 melanoma
KM12 colon = test system: KM12 colon
UACC-257 melanoma = test system: UACC-257 melanoma
SNB-75 CNS = test system: SNB-75 CNS
M14 melanoma = test system: M14 melanoma
DU-145 prostate = test system: DU-145 prostate
BT-549 breast = test system: BT-549 breast
SK-MEL-28 melanoma = test system: SK-MEL-28 melanoma
PC-3 prostate = test system: PC-3 prostate
NCI-H226 lung = test system: NCI-H226 lung
HT29 colon = test system: HT29 colon
MDA-MB-231 breast = test system: MDA-MB-231 breast
HL-60(TB) leukemia = test system: HL-60(TB) leukemia
IGROV1 ovarian = test system: IGROV1 ovarian
SW-620 colon = test system: SW-620 colon
HOP-62 NSCLC = test system: HOP-62 NSCLC
MCF7 breast = test system: MCF7 breast
HCC-2998 colon = test system: HCC-2998 colon
NCI/ADR-RES ovarian = test system: NCI/ADR-RES ovarian
A549 NSCLC = test system: A549 NSCLC
NCI-H522 lung = test system: NCI-H522 lung
SK-OV-3 ovarian = test system: SK-OV-3 ovarian
MALME-3M melanoma = test system: MALME-3M melanoma
T-47D breast = test system: T-47D breast
MOLT-4 leukemia = test system: MOLT-4 leukemia
A498 renal = test system: A498 renal
SF-295 CNS = test system: SF-295 CNS
SF-539 CNS = test system: SF-539 CNS
SR leukemia = test system: SR leukemia
COLO 205 colon = test system: COLO 205 colon
786-0 renal = test system: 786-0 renal

## CC(C)n1nc(-c2cc3cc(O)ccc3[nH]2)c2c(N)ncnc21
SK-MEL-2 melanoma
  GI50: 718 nM
  TGI: 1800 nM
OVCAR-8 ovarian
  GI50: 988 nM
  TGI: 5500 nM
SK-MEL-5 melanoma
  GI50: 246 nM
  TGI: 1060 nM
RPMI-8226 leukemia
  GI50: 91.6 nM
  TGI: 236 nM
MDA-MB-468 breast
  GI50: 201 nM
  TGI: 790 nM
ACHN renal
  GI50: 770 nM
  TGI: 2640 nM
HS 578T breast
  GI50: 221 nM
  TGI: 808 nM
NCI-H23 lung
  GI50: 952 nM
  TGI: 3220 nM
NCI-H322M lung
  GI50: 391 nM
  TGI: 3200 nM
SNB-19 CNS
  GI50: 2870 nM
  TGI: 12100 nM
UACC-62 melanoma
  GI50: 507 nM
  TGI: 2080 nM
SN12C renal
  GI50: 382 nM
  TGI: 4190 nM
HCT-15 colon
  GI50: 605 nM
  TGI: 11900 nM
NCI-H460 NSCLC
  GI50: 147 nM
  TGI: 1400 nM
RXF 393 renal
  GI50: 372 nM
  TGI: 1610 nM
SF-268 CNS
  GI50: 1840 nM
  TGI: 5930 nM
TK-10 renal
  GI50: 327 nM
  TGI: 1810 nM
HOP-92 NSCLC
  GI50: 345 nM
  TGI: 1620 nM
EKVX NSCLC
  GI50: 546 nM
  TGI: 3050 nM
OVCAR-4 ovarian
  GI50: 631 nM
  TGI: 2820 nM
OVCAR-3 ovarian
  GI50: 514 nM
  TGI: 4940 nM
OVCAR-5 ovarian
  GI50: 421 nM
  TGI: 3580 nM
U251 glioblastoma
  GI50: 1890 nM
  TGI: 6010 nM
CAKI-1 renal
  GI50: 328 nM
  TGI: 1810 nM
MDA-MB-435 melanoma
  GI50: 714 nM
  TGI: 3300 nM
KM12 colon
  GI50: 448 nM
  TGI: 6430 nM
UACC-257 melanoma
  GI50: 1140 nM
  TGI: 5390 nM
SNB-75 CNS
  GI50: 265 nM
  TGI: 1560 nM
M14 melanoma
  GI50: 354 nM
  TGI: 2010 nM
DU-145 prostate
  GI50: 1340 nM
  TGI: 11000 nM
BT-549 breast
  GI50: 600 nM
  TGI: 2310 nM
SK-MEL-28 melanoma
  GI50: 315 nM
  TGI: 1020 nM
PC-3 prostate
  GI50: 241 nM
  TGI: 1250 nM
NCI-H226 lung
  GI50: 374 nM
  TGI: 1290 nM
HT29 colon
  GI50: 1180 nM
  TGI: 8430 nM
MDA-MB-231 breast
  GI50: 338 nM
  TGI: 3410 nM
HL-60(TB) leukemia
  GI50: 1760 nM
  TGI: 3990 nM
IGROV1 ovarian
  GI50: 205 nM
  TGI: 642 nM
SW-620 colon
  GI50: 4200 nM
  TGI: 14600 nM
HOP-62 NSCLC
  GI50: 395 nM
  TGI: 1950 nM
MCF7 breast
  GI50: 229 nM
  TGI: 7960 nM
HCC-2998 colon
  GI50: 1380 nM
  TGI: 10500 nM
NCI/ADR-RES ovarian
  GI50: 511 nM
  TGI: 2200 nM
A549 NSCLC
  GI50: 415 nM
  TGI: 2370 nM
NCI-H522 lung
  GI50: 104 nM
  TGI: 701 nM
SK-OV-3 ovarian
  GI50: 208 nM
  TGI: 652 nM
MALME-3M melanoma
  GI50: 41.6 nM
  TGI: 271 nM
T-47D breast
  GI50: 107 nM
  TGI: 480 nM
MOLT-4 leukemia
  GI50: 329 nM
  TGI: 1620 nM
A498 renal
  GI50: 119 nM
  TGI: 764 nM
SF-295 CNS
  GI50: 1010 nM
  TGI: 3800 nM
SF-539 CNS
  GI50: 1030 nM
  TGI: 2940 nM
SR leukemia
  GI50: 285 nM
  TGI: 768 nM
COLO 205 colon
  GI50: 348 nM
  TGI: 1180 nM
786-0 renal
  GI50: 1230 nM
  TGI: 3940 nM
